This passage reports IC50 results from US11512080B2, “CRBN ligands and uses thereof” (Kymera Therapeutics, Inc., priority 2018, dated 2022).

Sequence of His-tagged CRBN-DDB1 complex (Q96SW2 whole entry): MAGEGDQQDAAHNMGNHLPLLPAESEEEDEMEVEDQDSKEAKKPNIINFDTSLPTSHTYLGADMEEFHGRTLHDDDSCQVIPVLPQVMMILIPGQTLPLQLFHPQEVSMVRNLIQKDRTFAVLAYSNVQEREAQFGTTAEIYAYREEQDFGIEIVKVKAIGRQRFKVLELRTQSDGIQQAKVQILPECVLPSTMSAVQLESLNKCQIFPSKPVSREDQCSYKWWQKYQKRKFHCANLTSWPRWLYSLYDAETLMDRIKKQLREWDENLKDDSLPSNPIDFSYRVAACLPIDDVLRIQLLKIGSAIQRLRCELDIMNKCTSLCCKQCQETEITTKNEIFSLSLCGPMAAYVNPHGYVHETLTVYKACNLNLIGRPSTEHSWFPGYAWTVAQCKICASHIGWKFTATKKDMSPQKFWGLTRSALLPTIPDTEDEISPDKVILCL
Sequence of His-tagged CRBN-DDB1 complex (Q16531 whole entry partner): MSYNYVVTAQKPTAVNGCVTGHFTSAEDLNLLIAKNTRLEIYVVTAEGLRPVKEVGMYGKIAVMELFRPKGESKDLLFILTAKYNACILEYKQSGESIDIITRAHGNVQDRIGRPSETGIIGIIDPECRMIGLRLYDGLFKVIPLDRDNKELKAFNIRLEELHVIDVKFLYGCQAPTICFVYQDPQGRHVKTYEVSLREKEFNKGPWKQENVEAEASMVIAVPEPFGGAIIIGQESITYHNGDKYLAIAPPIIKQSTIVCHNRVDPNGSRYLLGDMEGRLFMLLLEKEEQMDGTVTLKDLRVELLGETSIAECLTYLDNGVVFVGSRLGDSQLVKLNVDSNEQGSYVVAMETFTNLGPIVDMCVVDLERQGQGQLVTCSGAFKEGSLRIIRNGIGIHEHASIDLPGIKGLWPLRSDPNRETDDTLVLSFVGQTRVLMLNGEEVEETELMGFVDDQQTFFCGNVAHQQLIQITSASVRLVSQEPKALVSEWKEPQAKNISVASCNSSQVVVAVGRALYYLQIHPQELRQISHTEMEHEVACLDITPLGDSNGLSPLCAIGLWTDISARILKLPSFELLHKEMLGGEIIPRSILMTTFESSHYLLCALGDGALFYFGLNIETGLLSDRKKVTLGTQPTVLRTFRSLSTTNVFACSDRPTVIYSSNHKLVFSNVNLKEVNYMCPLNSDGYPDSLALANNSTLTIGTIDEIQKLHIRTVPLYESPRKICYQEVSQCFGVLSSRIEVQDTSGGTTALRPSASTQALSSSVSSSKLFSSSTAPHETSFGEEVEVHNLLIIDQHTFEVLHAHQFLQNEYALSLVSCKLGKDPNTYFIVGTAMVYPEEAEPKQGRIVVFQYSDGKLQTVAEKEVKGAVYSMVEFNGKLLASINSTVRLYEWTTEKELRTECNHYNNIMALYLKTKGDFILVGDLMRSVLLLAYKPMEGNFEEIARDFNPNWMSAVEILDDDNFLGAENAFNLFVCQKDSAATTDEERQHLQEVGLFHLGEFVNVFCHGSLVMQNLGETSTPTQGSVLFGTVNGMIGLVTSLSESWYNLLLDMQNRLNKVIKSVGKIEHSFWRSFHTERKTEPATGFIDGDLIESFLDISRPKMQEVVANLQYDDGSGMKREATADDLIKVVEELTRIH

The first test addresses His-tagged CRBN-DDB1 complex (Homo sapiens (Human), UniProt Q96SW2). The experiment in a line: Time-Resolved Fluorescence Resonance Energy Transfer (TR-FRET) assay. It counts as binding. The settings on record: competition with Cy5-labeled thalidomide (8 nM), 1 hour at room temperature; read-out: CRBN HTRF IC50. The procedure: The mixture were incubated at room temperature for 1 hour. […] Quantitative loss of FRET efficiency as a function of compound concentrations was fitted by a four-parameter Logistic Function using GraphPad Prism 7.0 and the IC50 values were reported for each compound.
The compound numbers correspond to the compound numbers in Table 1.
(In general: In TR-FRET formats the signal depends on donor and acceptor labels being close together.)
As to `O=C1CCC(Sc2nc3ccc(Cl)cc3[nH]2)C(=O)N1` (stereo not shown) [Compound I-8], the half-maximal inhibitory concentration (IC50) (as a rule, the midpoint of a concentration-inhibition curve) was 1 to 10 µM.
The same measure, in the same setting: as for `Cn1cccc(N2CCC(=O)NC2=O)c1=O` [Compound I-143], the figure is above 100 µM; as for `Cn1cc2ccccc2c(N2CCC(=O)NC2=O)c1=O` [Compound I-146, 1-(2-Methyl-3-oxo-2,3-dihydroisoquinolin-4-yl)dihydropyrimidine-2,4(1H,3H)-dione], above 100 µM.
On the same count and under the same terms, the value for `O=C1NC(=O)C(N2CCN(c3ccccc3)CC2=O)S1` (stereo not shown) [Compound I-82, 5-(2-Oxo-4-phenylpiperazin-1-yl)thiazolidine-2,4-dione] was above 100 µM; that for `O=C1CCC(SC2CCCCC2)C(=O)N1` (stereo not shown) [Compound I-116] was above 100 µM.
On the same count and under the same terms, the value for `Cn1ccc(N2CCC(=O)NC2=O)n1` [Compound I-76] was above 100 µM.
Turning to `Cn1nc(C2SC(=N)NC2=O)c2ccccc21` (stereo not shown) [Compound I-81, 2-Imino-5-(1-methyl-1H-indazol-3-yl)thiazolidin-4-one], the 50% inhibitory concentration (IC50) is above 100 µM.
The same measure, in the same setting: as for `O=c1ccn(-c2ccccn2)c(=O)[nH]1` [Compound I-28, 1-(pyridin-2-yl)pyrimidine-2,4(1H,3H)-dione], the figure is above 100 µM; as for `Cn1c(=O)c(N2CCC(=O)NC2=O)cc2ccccc21` [Compound I-144, 1-(1-Methyl-2-oxo-1,2-dihydroquinolin-3-yl)dihydropyrimidine-2,4(1H,3H)-dione], above 100 µM.

Still in this test, the particulars now being: read-out: CRBN HTRF IC50.
In the case of `CN(C)c1ccc(OC2CCC(=O)NC2=O)cc1` (stereo not shown) [Compound I-125], the IC50 was 1 to 10 µM.
Still for that read-out and setting: as for `O=C1CCC(Sc2nc(=O)cc(-c3ccccc3)[nH]2)C(=O)N1` (stereo not shown) [Compound I-93], the figure is 10 to 100 µM; as for `Cc1occc1SC1CCC(=O)NC1=O` (stereo not shown) [Compound I-80], 10 to 100 µM.
For the compound `O=C1CCC(Sc2cccc(Br)c2)C(=O)N1` (stereo not shown) [Compound I-108, 3-((3-Bromophenyl)thio)piperidine-2,6-dione], the IC50 was in the range of 1 to 10 µM.
For the compound `O=C1CCC(Sc2nc3ccc(Cl)cc3[nH]2)C(=O)N1` (stereo not shown) [Compound I-94], the IC50 was in the range of 1 to 10 µM.
As to `O=C1CCC(Sc2cccc(C(=O)O)n2)C(=O)N1` (stereo not shown) [Compound I-136], the IC50 was 1 to 10 µM.
Still for that read-out and setting: as for `O=C1CCC(Sc2ccc(Br)cn2)C(=O)N1` (stereo not shown) [Compound I-104], the figure is 1 to 10 µM; as for `CCCCc1ccc(OC2CCC(=O)NC2=O)cc1` (stereo not shown) [Compound I-124], 1 to 10 µM.
The same measure, in the same setting: the value for `O=C1CCC(Sc2ccccc2O)C(=O)N1` (stereo not shown) [Compound I-74] was 1 to 10 µM; that for `Cc1ccc(SC2CCC(=O)NC2=O)cc1` (stereo not shown) [Compound I-66] was 10 to 100 µM.
Same read-out and setting: as for `O=C1CCC(Sc2ccc(Cl)cn2)C(=O)N1` (stereo not shown) [Compound I-90], the figure is 1 to 10 µM; as for `O=C1CCC(Sc2nc3ccccc3[nH]2)C(=O)N1` (stereo not shown) [Compound I-96], 10 to 100 µM; as for `NC(=O)c1cccnc1SC1CCC(=O)NC1=O` (stereo not shown) [Compound I-140, 2-((2,6-Dioxopiperidin-3-yl)thio)nicotinamide], 1 to 10 µM.
`CN(C)C(=O)c1ccnc(SC2CCC(=O)NC2=O)c1` (stereo not shown) [Compound I-132, 2-((2,6-Dioxopiperidin-3-yl)thio)-N,N-dimethylisonicotinamide]: the IC50 fell in the range of 10 to 100 µM.
Same read-out and setting: the value for `O=C1CCC(Sc2nc3ccccc3n2C2CC2)C(=O)N1` (stereo not shown) [Compound I-70, 3-((1-Cyclopropyl-1H-benzo[d]imidazol-2-yl)thio)piperidine-2,6-dione] was 10 to 100 µM; that for `O=C1CCC(Sc2ccc(F)cc2)C(=O)N1` (stereo not shown) [Compound I-7] was 10 to 100 µM; that for `O=C1NC(=O)C(N2CC(c3ccccc3)OC2=O)S1` (stereo not shown) [Compound I-38] was 10 to 100 µM.
As for `CCc1ccc([S+]([O-])C2CCC(=O)NC2=O)cc1` (stereo not shown) [Compound I-64, 3-((4-ethylphenyl)sulfinyl)piperidine-2,6-dione], the IC50 was in the range of 10 to 100 µM.
The same measure, in the same setting: the value for `N#Cc1ccccc1SC1CCC(=O)NC1=O` (stereo not shown) [Compound I-117] was 10 to 100 µM; that for `O=C1CCC(Sc2ccncc2)C(=O)N1` (stereo not shown) [Compound I-62] was 10 to 100 µM.
For `O=C1CCC(Sc2ccc(C(F)(F)F)cc2)C(=O)N1` (stereo not shown) [Compound I-16, 3-((4-(trifluoromethyl)phenyl)thio)piperidine-2,6-dione], the half-inhibitory concentration (IC50) is 10 to 100 µM.
`O=C1CCC(Sc2ccccc2OC(F)(F)F)C(=O)N1` (stereo not shown) [Compound I-99]: the half-maximal inhibitory concentration (IC50) was in the range of 1 to 10 µM.
On the same count and under the same terms, the value for `Cc1cc(O)nc(SC2CCC(=O)NC2=O)n1` (stereo not shown) [Compound I-95, 3-((4-hydroxy-6-methylpyrimidin-2-yl)thio)piperidine-2,6-dione] was 10 to 100 µM; that for `N#Cc1cccc(SC2CCC(=O)NC2=O)c1` (stereo not shown) [Compound I-134] was 10 to 100 µM; that for `CCOc1cccc(SC2CCC(=O)NC2=O)c1` (stereo not shown) [Compound I-86] was 1 to 10 µM.
Same read-out and setting: the value for `O=C1CCC(Sc2ccccn2)C(=O)N1` (stereo not shown) [Compound I-6, 3-(pyridin-2-ylthio)piperidine-2,6-dione] was 10 to 100 µM; that for `O=C1CCC(Sc2cccc3cccnc23)C(=O)N1` (stereo not shown) [Compound I-97] was 1 to 10 µM.
The same measure, in the same setting: the value for `O=C1CCC(Sc2cccc(Cl)c2)C(=O)N1` (stereo not shown) [Compound I-122] was 1 to 10 µM.
Turning to `O=C1CCC(Oc2ccc3ccccc3c2)C(=O)N1` (stereo not shown) [Compound I-119], the IC50 is 1 to 10 µM.
Same read-out and setting: as for `O=C1CCC(Sc2cccc[n+]2[O-])C(=O)N1` (stereo not shown) [Compound I-110], the figure is 1 to 10 µM.
Turning to `O=C1CCC(Sc2cccc(CO)c2)C(=O)N1` (stereo not shown) [Compound I-127, 3-((3-(Hydroxymethyl)phenyl)thio)piperidine-2,6-dione], the IC50 was in the range of 10 to 100 µM.
On the same count and under the same terms, the value for `CCc1ccc(SC2CCC(=O)NC2=O)cc1` (stereo not shown) [Compound I-17, 3-((4-ethylphenyl)thio)piperidine-2,6-dione] was 1 to 10 µM; that for `Nc1ccc(SC2CCC(=O)NC2=O)cc1` (stereo not shown) [Compound I-14, 3-(4-Amino-phenylsulfanyl)-piperidine-2,6-dione] was 10 to 100 µM; that for `COc1cccc(SC2CCC(=O)NC2=O)c1` (stereo not shown) [Compound I-87] was 1 to 10 µM.
Regarding `Cn1nc(N2CCC(=O)NC2=O)cc1-c1ccccc1` [Compound I-88, 1-(1-Methyl-5-phenyl-1H-pyrazol-3-yl)dihydropyrimidine-2,4(1H,3H)-dione], the IC50 fell in the range of 10 to 100 µM.
Same read-out and setting: as for `O=C1CCC(Sc2cc(-c3nn[nH]n3)ccn2)C(=O)N1` (stereo not shown) [Compound I-139, 3-((4-(2H-Tetrazol-5-yl)pyridin-2-yl)thio)piperidine-2,6-dione], the figure is 1 to 10 µM; as for `O=C1CCN(Cc2ccccc2)C(=O)N1` [Compound I-24, 1-Benzyl-dihydro-pyrimidine-2,4-dione], 10 to 100 µM; as for `Cc1coc(-c2ccnc(SC3CCC(=O)NC3=O)c2)n1` (stereo not shown) [Compound I-138, 3-((4-(4-Methyloxazol-2-yl)pyridin-2-yl)thio)piperidine-2,6-dione], 1 to 10 µM.
Still for that read-out and setting: the value for `CCCCc1ccc(SC2CCC(=O)NC2=O)cc1` (stereo not shown) [Compound I-84] was 1 to 10 µM.
The same measure, in the same setting: the value for `O=C1CCC(Sc2cc(Cl)ccc2Cl)C(=O)N1` (stereo not shown) [Compound I-101] was 1 to 10 µM; that for `CCN(CC)c1ccc(SC2CCC(=O)NC2=O)cc1` (stereo not shown) [Compound I-135] was 1 to 10 µM.
As for `Cc1c(SC2CCC(=O)NC2=O)cccc1C(=O)O` (stereo not shown) [Compound I-137, 3-((2,6-Dioxopiperidin-3-yl)thio)-2-methylbenzoic acid], the IC50 was 10 to 100 µM.
The same measure, in the same setting: the value for `O=c1ccn(-c2ccccc2)c(=O)[nH]1` [Compound I-27, 1-phenylpyrimidine-2,4(1H,3H)-dione] was 10 to 100 µM; that for `COCCOCCNC(=O)c1cccnc1SC1CCC(=O)NC1=O` (stereo not shown) [Compound I-142] was 1 to 10 µM.
Still for that read-out and setting: as for `CCc1ccc(S(=O)(=O)C2CCC(=O)NC2=O)cc1` (stereo not shown) [Compound I-65, 3-((4-ethylphenyl)sulfonyl)piperidine-2,6-dione], the figure is 10 to 100 µM; as for `O=C1CCC(Sc2ccc(CO)cc2)C(=O)N1` (stereo not shown) [Compound I-112], 10 to 100 µM; as for `O=C1CCC(Sc2ccc(C(=O)O)cc2)C(=O)N1` (stereo not shown) [Compound I-10, 4-((2,6-dioxopiperidin-3-yl)thio)benzoic acid], 10 to 100 µM.
Same read-out and setting: as for `CN(C)C(=O)c1cccnc1SC1CCC(=O)NC1=O` (stereo not shown) [Compound I-141], the figure is 10 to 100 µM; as for `COc1ccccc1SC1CCC(=O)NC1=O` (stereo not shown) [Compound I-75], 10 to 100 µM.
As for `Nc1cc(=O)nc(SC2CCC(=O)NC2=O)[nH]1` (stereo not shown) [Compound I-113], the IC50 is 10 to 100 µM.
Still for that read-out and setting: the value for `O=C1CCC(Sc2ccc(C(F)(F)F)cn2)C(=O)N1` (stereo not shown) [Compound I-98] was 10 to 100 µM.
The same measure, in the same setting: the value for `CC(C)c1ccc(SC2CCC(=O)NC2=O)cc1` (stereo not shown) [Compound I-68] was 1 to 10 µM; that for `O=C1CCC(Sc2ccc(Cl)cc2)C(=O)N1` (stereo not shown) [Compound I-15, 3-((4-chlorophenyl)thio)piperidine-2,6-dione] was 10 to 100 µM.
As for `CC(C)(C)c1ccc(OC2CCC(=O)NC2=O)cc1` (stereo not shown) [Compound I-115], the IC50 lay within 1 to 10 µM.
Turning to `O=C1CCC(Sc2ccccc2)C(=O)N1` (stereo not shown) [Compound I-4, 3-(phenylthio)piperidine-2,6-dione], the IC50 lay within 10 to 100 µM.
Still for that read-out and setting: as for `Nc1cc(C(F)(F)F)ccc1SC1CCC(=O)NC1=O` (stereo not shown) [Compound I-120], the figure is 10 to 100 µM; as for `Cn1c(=O)c(C2SC(=O)NC2=O)cc2ccccc21` (stereo not shown) [Compound I-118, 5-(1-methyl-2-oxo-1,2-dihydroquinolin-3-yl)thiazolidine-2,4-dione], 10 to 100 µM.
The same measure, in the same setting: as for `O=C1CCC(Sc2cc(C(=O)O)ccn2)C(=O)N1` (stereo not shown) [Compound I-111], the figure is 1 to 10 µM; as for `CCc1cccc(SC2CCC(=O)NC2=O)c1` (stereo not shown) [Compound I-121, 3-((3-ethylphenyl)thio)piperidine-2,6-dione], 1 to 10 µM; as for `O=C1CCC(Sc2cccc(C(=O)O)c2)C(=O)N1` (stereo not shown) [Compound I-123], 10 to 100 µM.
The same measure, in the same setting: as for `O=C1CCC(Sc2ncccc2C(=O)O)C(=O)N1` (stereo not shown) [Compound I-126], the figure is 1 to 10 µM.
